Assay: Muscle relaxant activity in rat diaphragm assessed as inhibition of electrically-stimulated contraction
Type: functional

With C/C=C1/C[N+]2(C)[C@H]3C[C@@H]1[C@@](CO)(C(=O)OC)[C@@H]2Cc1c3[nH]c2cc(OC)ccc12 [11-METHOXY MACUSINE A] as the molecule, how does the Activity read?
Its Activity is 0.16 mg/kg.

Source: ChEMBL document CHEMBL1151295, “11-Methoxy-macusine A. A new quaternary alkaloid from Strychnos angolensis” (1983)
